Test results published in patent US20040006026A1, “Avilamycin derivatives” (Combinature Biopharm AG, priority 2001, published 2004).
Where two headings read alike, the source gives them in different places.

Experiments:
[1] = test system: Bacillus subtilis; assay: broth microdilution antimicrobial spectrum (NCCLS); assay type: cell-based
Method: (§1) The antimicrobial spectrum of gavibamycin A3 was determined and compared with that of avilamycin A. In this context, the “broth microdilution” method in accordance with the regulations of the national committee for clinical laboratory standards (NCCLS) was used.

[2] = test system: Enterococcus faecalis ATCC29212; assay: broth microdilution antimicrobial spectrum (NCCLS); assay type: cell-based
Method: as §1

[3] = test system: Enterococcus faecalis H-7-6; assay: broth microdilution antimicrobial spectrum (NCCLS); assay type: cell-based
Method: as §1

[4] = test system: Staphylococcus aureus ATCC29213; assay: broth microdilution antimicrobial spectrum (NCCLS); assay type: cell-based
Method: as §1

[5] = test system: Staphylococcus aureus ATCC6538P; assay: broth microdilution antimicrobial spectrum (NCCLS); assay type: cell-based
Method: as §1

[6] = test system: Staphylococcus aureus ATCC6538; assay: broth microdilution antimicrobial spectrum (NCCLS); assay type: cell-based
Method: as §1

[7] = test system: Staphylococcus aureus Q48-1.2.1; assay: broth microdilution antimicrobial spectrum (NCCLS); assay type: cell-based
Method: as §1

[8] = test system: Streptococcus pneumoniae ATCC49619; assay: broth microdilution antimicrobial spectrum (NCCLS); assay type: cell-based
Method: as §1

[9] = test system: multiresistant Staphylococcus aureus strains; details: Zähner, 1999; cited from earlier work
[10] = test system: various Staphylococcus aureus strains; assay: preliminary tests / first MIC experiments; assay type: cell-based
Method: as §1
(§2) Furthermore, gavibamycin A3 was tested with regard to its antibiotic effect. […] The non-chlorinated gavibamycin derivatives also have antibiotic activity.

[11] = hydrophilia from Rf values / retention factors of TLC and HPLC analysis; assay type: physicochemical
Method: TLC analysis: Streptomyces viridochromogenes Tü57 and the mutants GW-4 and GW4-AM1 were incubated for three days. The cultures were filtered off, and the filtrate was applied to a solid-phase extraction cartridge (SepPakC18, Waters). The cartridge was eluted with a gradient between 10% and 100% methanol in water. Avilamycin derivatives eluted with the fraction that contains 60-70% methanol. After extraction with ethyl acetate and withdrawal of the solvent, the avilamycin derivatives were dissolved in methanol once again and measured by means of TLC on silica gel plates (silica gel 60 F254, Merck), with methylene chloride/methanol (9:1, v/v) as the solvent. Avilamycin derivatives had been detected after treatment with anisaldehyde/H2SO4.
An analytical HPLC-UV was carried out on a Hewlett Packard 1090 Liquid Chromatograph with a photodiode array detector and a HP-ODS-Hypersil 5 μm, 200×2 mm column. The sequence of the solutions was as follows: Solution A, 0.04M (NH4)2HPO4 pH 7.0 buffer; Solution B, 100% methanol; a non-linear gradient, with 30-62% of Solution B distributed over a period of 25 min at a flow rate of 0.2 mL/min.
as §2

[12] = parenteral administration to a patient, tolerance; assay type: in vivo
Method: 5 g gavibamycin A3 are dissolved in 1 l water for injection purposes, if necessary using a pharmaceutically well tolerated solubility enhancer, at room temperature, and subsequently adjusted to isotonic conditions for injection purposes by adding water-free glucose.
In an average patient, with a body weight of approximately 65 kg, 0.5 mL of this solution is administered, in other words 2.5 mg or approximately […].

hydrophilia compared with avilamycin A ([11]; listed as gavibamycin)	Structure (SMILES)	antibiotic activity [1]	antibiotic activity [2]	antibiotic activity [3]	antibiotic activity [4]	antibiotic activity [5]	antibiotic activity [6]	antibiotic activity [7]	antibiotic activity [8]	activity against multiresistant Staphylococcus aureus strains [9]	activity against various Staphylococcus aureus strains compared with avilamycin A [10]	activity against various Staphylococcus aureus strains compared with avilamycin A ([10]; listed as gavibamycin)	hydrophilia compared with avilamycin A [11]	tolerance of higher dosage ([12]; human, in vivo)	tolerance of the administered dose ([12]; patient approx. 65 kg, 0.5 mL of 5 g/l solution, 2.5 mg, parenteral)
	COC[C@H]1O[C@@H](OC2OC[C@@H]3O[C@]4(O[C@H]3[C@H]2OC(=O)C(C)C)O[C@H](C)[C@@](O)(C(C)=O)[C@@H]2OCO[C@H]24)[C@@H](OC)[C@@H](O)[C@@H]1O[C@@H]1O[C@H](C)[C@H](OC)[C@H](O[C@H]2C[C@@]3(C)OC4(C[C@@H](O)[C@H](O[C@H]5C[C@@H](O)[C@H](OC(=O)c6c(C)c(Cl)c(O)c(Cl)c6OC)[C@@H](C)O5)[C@@H](C)O4)O[C@@H]3[C@@H](C)O2)[C@H]1O (some centres unmarked) [avilamycin A, reference compound]	demonstrate antibiotic activity	demonstrate antibiotic activity	demonstrate antibiotic activity	demonstrate antibiotic activity	demonstrate antibiotic activity	demonstrate antibiotic activity	demonstrate antibiotic activity	demonstrate antibiotic activity	excellent activity					
much more hydrophilic	COCC1OC(OC2OCC3OC4(OC3C2OC(=O)C(C)C)OC(C)C(O)(C(C)O)C2OCOC24)C(OC)C(O)C1OC1OC(C)C(OC)C(OC2CC3(C)OC4(CC(O)C(OC5CC(O)C(OC(=O)c6c(C)c(Cl)c(O)c(Cl)c6O)C(C)O5)C(C)O4)OC3C(C)O2)C1O (centres unmarked) [gavibamycin A3]	demonstrate antibiotic activity	demonstrate antibiotic activity	demonstrate antibiotic activity	demonstrate antibiotic activity	demonstrate antibiotic activity	demonstrate antibiotic activity	demonstrate antibiotic activity	demonstrate antibiotic activity		somewhat stronger activity	somewhat more active than avilamycin A	somewhat more hydrophilic than avilamycin A	toxicologically unproblematic and was well tolerated	well tolerated by the patient
